Experimental data taken from patent publication US20060165603A1, “Solubilisation of drugs in hfa propellant by means of emulsions” (Chiesi Farmaceutici S.p.A., priority 2002, published 2006).
Structures can show the parent of a compound that is named as a salt.

What was measured:
[1] = Emulsion formation of pMDI formulations in HFA propellant (visual); assay type: physicochemical; conditions: 5% w/w water, 25 μg/50 μl drug; for Comment (emulsion formation): HFA227
Method: (§1) Samples were prepared in clear glass formulation vials. The surfactants were added first followed by water then the other components of the formulation were added and the weight of bottle recorded after each addition. Final compositions were calculated as percentage w/w. Valves were crimped onto plastic-coated bottles or anodized aluminium cans before being placed in a sonicator for 5 minutes to allow as much dissolution of surfactants in the water as possible. The propellant was filled through the valve and the final weight of the packaged formulation recorded. In the case of the emulsions the packaged formulations were either shaken vigorously by hand or gently warmed in the hand (sonication where necessary) to induce an emulsion.
The surfactants used for these formulations are a Span85/AOT blend and the Synperonics L64.

[2] = Microemulsion formation / appearance of formulations in HFA227; assay type: physicochemical; conditions: 10% surfactant, 20% EtOH, HFA 227, 5% w/w water
Method: as §1, with “emulsion. For the microemulsion formulations the same method was used except the ethanol was added just before crimping and no sonication was required after HFA addition as a clear formulation was obtained immediately.” for “emulsion.”
The following table 3 lists the various microemulsion formulations prepared with Synperonic L64, AOT, and the fluorinated surfactant Zonyl FSN. L64 and Zonyl FSN produced clear systems.

| Comment (emulsion formation) ([1]; 0.1% Span85, 0.05% AOT) | Emulsion formation, HFA 134a ([1]; 0.1% Synperonic L64) | Emulsion formation, HFA 227 ([1]; 0.1% Synperonic L64) | Comment (emulsion formation) ([1]; 0.4% Span85, 0.05% AOT) | Emulsion formation, HFA 134a ([1]; 0.5% Synperonic L64) | Emulsion formation, HFA 227 ([1]; 0.5% Synperonic L64) | Emulsion formation, HFA 134a ([1]; 1% Synperonic L64) | Emulsion formation, HFA 227 ([1]; 1% Synperonic L64) | Comment (emulsion formation) ([1]; 0.1% Span85, 0.01% AOT) | Compound | Comment (microemulsion formulation appearance) [2] |
| --- | --- | --- | --- | --- | --- | --- | --- | --- | --- | --- |
| Emulsion | Emulsion | Emulsion | Emulsion | Emulsion | Emulsion | Emulsion | Emulsion | – | CN1CCc2cccc3c2[C@H]1Cc1ccc(O)c(O)c1-3 [Apomorphine Hydrochloride, apomorphine hydrochloride] | – |
| Emulsion | Emulsion | – | – | Emulsion | Immediate emulsion | Emulsion | Immediate emulsion | Emulsion | CCC(=O)Oc1ccc2c(c1)CC[C@@H]1[C@@H]2CC[C@]2(C)[C@@H](OC(=O)CC)CC[C@@H]12 [Oestradiol Dipropionate, oestradiol dipropionate] | – |
| – | – | – | – | – | – | – | – | – | sodium dioctylsulpho-succinate [AOT] | Slight cloud, one apparent phase |
